For 1 compound, IC50 results are on record in US8410170B2, “Use of isothiocyanates compounds in treating prostatic diseases and skin cancer” (Wuxi JC Pharmaceutical Technology Co., Ltd., priority 2005, dated 2013).

The experiment concerns LNCaP AI. Put plainly: MTT growth inhibition, hormone independent LNCaP AI. The class given is cell-based. The following applies: Homo sapiens, LNCaP, 168 h, read-out: IC50, growth inhibition. From the text: The human prostate cancer cell line LNCaP AD was purchased from the American Type Culture Collection. LNCaP AI cell line was derived from LNCaP cells using a method described previously by Gao et al. (Gao, M., Ossowski, L., and Ferrari, A. C. Activation of Rb and decline in androgen receptor protein precede retinoic acid-induced apoptosis in androgen-dependent LNCaP cells and their androgen-independent derivative. J Cell Physiol, 179: 336-346, 1999). The AD and AI cells were maintained in RPMI-1640 with 10% fetal bovine serum (FBS) and charcoal stripped fetal bovine serum, penicillin-streptomycin for incubation at 5% CO2 and 37° C. respectively.
MTT: MTT and SRB method were used to determine the effects of various isothiocyanates on cell growth as described previously (Kreis, Budman et al, 1997). Briefly, human prostate cancer cell line LNCaP grown exponentially were aliquoted into 96-well plates at a density of 2500 cells/200 μl per well. Twenty-four hrs after the incubation, the cells were exposed for seven days to serial dilutions of indicated isothiocyanate or paclitaxel. […] The absorbance was measured at wavelength 540 nm. The percent of cell survival (T/C%) were calculated based on the results of test groups to that of the control group. […]

As for `S=C=NCCc1ccccc1` [PEITC, phenethyl isothiocyanate], the half-inhibitory concentration (IC50) turned out to be 600 nM.
